ChEMBL document CHEMBL4823253, “Structure-Based Design of Selective LONP1 Inhibitors for Probing In Vitro Biology” (J Med Chem, 2021)
Calls of active or inactive are those of the source. No cut-off for these calls is given here.

biological target: T1, Cobalamin trafficking protein CblD (Homo sapiens) (UniProt Q9H3L0); experiment: Binding affinity to MMADHC in human LONP1 dependent Calu-6 cells assessed as increase in protein abundance by HTRF assay relative to control; details: not given
T1 sequence (whole entry): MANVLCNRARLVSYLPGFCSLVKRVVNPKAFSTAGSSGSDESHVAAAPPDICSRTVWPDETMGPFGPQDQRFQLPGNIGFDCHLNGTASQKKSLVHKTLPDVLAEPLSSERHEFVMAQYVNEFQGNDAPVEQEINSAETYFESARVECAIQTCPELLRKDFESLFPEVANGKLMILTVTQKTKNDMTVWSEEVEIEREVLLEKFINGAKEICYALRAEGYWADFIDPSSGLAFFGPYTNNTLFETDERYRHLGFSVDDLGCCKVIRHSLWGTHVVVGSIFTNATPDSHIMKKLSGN

| fold change (FC) | Structure (SMILES) |
| --- | --- |
| 30 | CCC[C@@H](NC(=O)c1oc(C)nc1C)C(=O)N[C@@H](CCCc1ccccc1)B(O)O |

biological target: T1, Cobalamin trafficking protein CblD (Homo sapiens); experiment: Binding affinity to MMADHC in human LONP1 dependent NCI-H1944 cells assessed as increase in protein abundance at 10 uM by WES analysis relative to control; assay type: cell-based; details: not given

| fold change (FC) | Structure (SMILES) |
| --- | --- |
| 30 | CCC[C@@H](NC(=O)c1oc(C)nc1C)C(=O)N[C@@H](CCCc1ccccc1)B(O)O |

biological target: 20S proteasome; experiment: Inhibition of human erythrocytes 20S proteasome using QXL520-YRGITCSGRQK(5-FAM)-NH2 fluorogenic peptide as substrate preincubated for 10 mins followed by substrate addition and measured after 60 mins by HTRF assay; details: erythrocyte

| Structure (SMILES) | IC50 [nM] |
| --- | --- |
| O=C(N[C@H](Cc1ccccc1)C(=O)N[C@@H](CC1CCCCC1)B(O)O)c1cnccn1 | 541 |
| O=C(N[C@H](Cc1ccccc1)C(=O)N[C@@H](CCc1ccccc1)B(O)O)c1cnccn1 | 262 |
| O=C(N[C@H](Cc1ccccc1)C(=O)N[C@@H](CCCc1ccccc1)B(O)O)c1cnccn1 | 259 |
| CCC[C@@H](NC(=O)c1cnccn1)C(=O)N[C@@H](CCc1ccccc1)B(O)O | > 10000 |
| O=C(N[C@H](Cc1ccccc1)C(=O)N[C@@H](CCCCCBr)B(O)O)c1cnccn1 | 1940 |
| CCC[C@@H](NC(=O)c1cnccn1)C(=O)N[C@@H](CCCc1ccccc1)B(O)O | > 10000 |
| CCC[C@@H](NC(=O)c1oc(C)nc1C)C(=O)N[C@@H](CCCc1ccccc1)B(O)O | > 10000 |
| O=C(N[C@H](Cc1ccccc1)C(=O)N[C@@H](Cc1ccccc1)B(O)O)c1cnccn1 | 679 |

Second part, the molecule after the results:

| IC50 [nM] | Structure (SMILES) |
| --- | --- |
| 2680 | CC(C)C[C@H](NC(=O)[C@@H](C)NC(=O)c1cnccn1)B(O)O |
| > 10000 | CCC[C@@H](NC(=O)c1cnccn1)C(=O)N[C@@H](Cc1ccccc1)B(O)O |
| > 10000 | CCCC[C@H](NC(=O)[C@@H](CCC)NC(=O)c1cnccn1)B(O)O |
| > 10000 | CC(C)C[C@H](NC(=O)[C@H](NC(=O)c1cnccn1)C(C)(C)C)B(O)O |
| 1040 | CC(C)CCC[C@H](NC(=O)[C@@H](Cc1ccccc1)NC(=O)c1cnccn1)B(O)O |
| > 10000 | CCC[C@@H](NC(=O)c1cnccn1)C(=O)N[C@@H](CC(C)C)B(O)O |
| > 10000 | CCCC[C@@H](NC(=O)c1cnccn1)C(=O)N[C@@H](CC(C)C)B(O)O |
| 3970 | CC(C)C[C@H](NC(=O)[C@H](NC(=O)c1cnccn1)C(C)C)B(O)O |
| > 10000 | CCC[C@@H](NC(=O)c1cnccn1)C(=O)N[C@@H](CC1CCCCC1)B(O)O |
| 843 | CC(C)C[C@H](NC(=O)[C@@H](CC1CCCCC1)NC(=O)c1cnccn1)B(O)O |
| > 10000 | CC[C@@H](NC(=O)c1cnccn1)C(=O)N[C@@H](CC(C)C)B(O)O |

biological target: T1, Cobalamin trafficking protein CblD (Homo sapiens); experiment: Binding affinity to MMADHC in human LONP1 dependent NCI-H1568 cells assessed as increase in protein abundance relative to control; assay type: cell-based; details: not given

| fold change (FC) | Structure (SMILES) |
| --- | --- |
| 30 | CCC[C@@H](NC(=O)c1oc(C)nc1C)C(=O)N[C@@H](CCCc1ccccc1)B(O)O |

biological target: T2, Lon protease homolog, mitochondrial (Homo sapiens, UniProt P36776); experiment: Inhibition of LONP1 (unknown origin) using QXL520-YRGITCSGRQK(5-FAM)-NH2 peptide as substrate incubated for 50 mins in presence of ATP by HTRF assay; details: not given
T2 sequence (P36776 whole entry): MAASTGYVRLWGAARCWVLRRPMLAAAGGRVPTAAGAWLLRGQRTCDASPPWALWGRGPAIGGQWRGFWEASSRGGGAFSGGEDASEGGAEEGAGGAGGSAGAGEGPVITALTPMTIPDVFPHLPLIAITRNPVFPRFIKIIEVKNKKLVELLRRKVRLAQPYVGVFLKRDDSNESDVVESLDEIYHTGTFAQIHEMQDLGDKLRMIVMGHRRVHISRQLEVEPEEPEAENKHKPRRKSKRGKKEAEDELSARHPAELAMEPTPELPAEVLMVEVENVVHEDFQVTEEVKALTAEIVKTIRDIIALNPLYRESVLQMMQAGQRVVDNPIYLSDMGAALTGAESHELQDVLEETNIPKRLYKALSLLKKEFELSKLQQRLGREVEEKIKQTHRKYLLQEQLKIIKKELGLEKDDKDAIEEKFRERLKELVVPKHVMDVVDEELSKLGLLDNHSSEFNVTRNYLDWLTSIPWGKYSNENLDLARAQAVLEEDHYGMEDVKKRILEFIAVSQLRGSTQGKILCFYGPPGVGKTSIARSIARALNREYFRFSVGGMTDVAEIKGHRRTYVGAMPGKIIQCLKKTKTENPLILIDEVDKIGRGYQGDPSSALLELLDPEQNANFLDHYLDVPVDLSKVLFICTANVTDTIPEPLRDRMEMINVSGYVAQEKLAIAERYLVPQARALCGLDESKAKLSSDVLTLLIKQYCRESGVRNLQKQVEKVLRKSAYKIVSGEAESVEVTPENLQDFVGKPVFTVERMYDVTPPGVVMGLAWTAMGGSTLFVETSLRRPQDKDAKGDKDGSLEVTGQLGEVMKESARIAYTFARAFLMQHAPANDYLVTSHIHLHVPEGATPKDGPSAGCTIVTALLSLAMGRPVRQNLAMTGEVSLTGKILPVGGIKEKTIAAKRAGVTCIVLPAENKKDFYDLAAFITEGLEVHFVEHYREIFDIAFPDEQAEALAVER

| Structure (SMILES) | IC50 [nM] |
| --- | --- |
| O=C(N[C@H](Cc1ccccc1)C(=O)N[C@@H](CC1CCCCC1)B(O)O)c1cnccn1 | 92 |
| O=C(N[C@H](Cc1ccccc1)C(=O)N[C@@H](CCc1ccccc1)B(O)O)c1cnccn1 | 34 |
| O=C(N[C@H](Cc1ccccc1)C(=O)N[C@@H](CCCc1ccccc1)B(O)O)c1cnccn1 | 18 |
| CCC[C@@H](NC(=O)c1cnccn1)C(=O)N[C@@H](CCc1ccccc1)B(O)O | 92 |
| O=C(N[C@H](Cc1ccccc1)C(=O)N[C@@H](CCCCCBr)B(O)O)c1cnccn1 | 77 |
| CCC[C@@H](NC(=O)c1cnccn1)C(=O)N[C@@H](CCCc1ccccc1)B(O)O | 17 |
| CCC[C@@H](NC(=O)c1oc(C)nc1C)C(=O)N[C@@H](CCCc1ccccc1)B(O)O | 59 |
| O=C(N[C@H](Cc1ccccc1)C(=O)N[C@@H](Cc1ccccc1)B(O)O)c1cnccn1 | 109 |

The remaining lines, values ahead:

| IC50 [nM] | Structure (SMILES) |
| --- | --- |
| 433 | CC(C)C[C@H](NC(=O)[C@@H](C)NC(=O)c1cnccn1)B(O)O |
| 6200 | CC(C)C[C@H](NC(=O)C(C)(C)NC(=O)c1cnccn1)B(O)O |
| 556 | CCC[C@@H](NC(=O)c1cnccn1)C(=O)N[C@@H](Cc1ccccc1)B(O)O |
| 38 | CCCC[C@H](NC(=O)[C@@H](CCC)NC(=O)c1cnccn1)B(O)O |
| 2850 | CC(C)C[C@H](NC(=O)[C@H](NC(=O)c1cnccn1)C(C)(C)C)B(O)O |
| 65 | CC(C)CCC[C@H](NC(=O)[C@@H](Cc1ccccc1)NC(=O)c1cnccn1)B(O)O |
| 187 | CCC[C@@H](NC(=O)c1cnccn1)C(=O)N[C@@H](CC(C)C)B(O)O |
| 93 | CCCC[C@@H](NC(=O)c1cnccn1)C(=O)N[C@@H](CC(C)C)B(O)O |
| 546 | CC(C)C[C@H](NC(=O)[C@H](NC(=O)c1cnccn1)C(C)C)B(O)O |
| 136 | CCC[C@@H](NC(=O)c1cnccn1)C(=O)N[C@@H](CC1CCCCC1)B(O)O |
| 137 | CC(C)C[C@H](NC(=O)[C@@H](CC1CCCCC1)NC(=O)c1cnccn1)B(O)O |
| 408 | CC[C@@H](NC(=O)c1cnccn1)C(=O)N[C@@H](CC(C)C)B(O)O |

biological target: T1, Cobalamin trafficking protein CblD (Homo sapiens); experiment: Binding affinity to MMADHC in human Flp-In-T-REx-293 stably expressing 3X-FLAG-tagged LOPN1 assessed as increase in protein abundance by mass spectrometric analysis; details: not given

| Activity | Structure (SMILES) |
| --- | --- |
| Active | CCC[C@@H](NC(=O)c1oc(C)nc1C)C(=O)N[C@@H](CCCc1ccccc1)B(O)O |
